{"source": "patent US6617444B1", "about": "“Dinucleotide tetraphosphate crystals” (Yamasa Corporation, priority 1999, dated 2003)", "key": {"[1]": {"assay": "Stability: acceleration test, sealed bottles stored at 60° C.", "assay_type": "physicochemical", "details": "sealed bottle, 13 days at 60° C. (acceleration test)", "protocol": "dCP4U.4Na crystals (decahydrate) and a freeze-dried product were individually placed in bottles, which were then sealed and stored for 13 days at 60° C. (acceleration test)."}, "[2]": {"assay": "Hygroscopicity: standing at controlled temperature and relative humidity", "assay_type": "physicochemical", "protocol": "dCP4U.4Na crystals (decahydrate) having a water content of approximately 17.4% were allowed to stand for two days under the following conditions a), b) and c): a) 25° C. and a relative humidity of 57%; b) 25° C. and a relative humidity of 75%; c) 25° C. and a relative humidity of 93%. […] The crystals have proven to be stable and to have no hygroscopicity. In addition, the same crystals were allowed to stand for seven days under the following severe conditions d): d) 40° C. and a relative humidity of 75%."}, "[3]": {"details": "two days, 25° C., relative humidity 75%"}, "[4]": {"details": "two days, 25° C., relative humidity 93%"}}}
{"smiles": "Nc1ccn([C@H]2CC(O)[C@@H](COP(=O)(O)OP(=O)(O)OP(=O)(O)OP(=O)(O)OC[C@H]3O[C@@H](n4ccc(=O)[nH]c4=O)C(O)C3O)O2)c(=O)n1", "note": "(stereo partly drawn) [freeze-dried product, p^1-(2′-deoxycytidine 5′-)P^4-(uridine 5′-)tetraphosphate, reference compound]", "values": [{"measurement": "decomposition on storage", "setting": "[1]", "result": "partially decomposed"}, {"measurement": "purity loss on storage", "setting": "[1]", "result": "approximately 2.2%"}, {"measurement": "decomposition or change in weight / state on standing (hygroscopicity)", "setting": "[2]; [3]", "result": "assumed a mud-like state due to gradual increase in water content"}, {"measurement": "decomposition or change in weight / state on standing (hygroscopicity)", "setting": "[2]; [4]", "result": "assumed a mud-like state due to gradual increase in water content"}]}
{"smiles": "Nc1ccn([C@H]2CC(O)[C@@H](COP(=O)(O)OP(=O)(O)OP(=O)(O)OP(=O)(O)OC[C@H]3O[C@@H](n4ccc(=O)[nH]c4=O)C(O)C3O)O2)c(=O)n1", "note": "(stereo partly drawn) [dCP4U.4Na crystals (decahydrate), p^1-(2′-deoxycytidine 5′-)P^4-(uridine 5′-)tetraphosphate]", "values": [{"measurement": "decomposition on storage", "setting": "[1]", "result": "No decomposition"}, {"measurement": "change on standing under severe conditions", "setting": "[2]; seven days, 40° C., relative humidity 75%", "result": "No change was observed"}, {"measurement": "decomposition or change in weight on standing (hygroscopicity)", "setting": "[2]; two days, 25° C., relative humidity 57%", "result": "No decomposition or change in weight was observed"}, {"measurement": "decomposition or change in weight / state on standing (hygroscopicity)", "setting": "[2]; [3]", "result": "No decomposition or change in weight was observed"}, {"measurement": "decomposition or change in weight / state on standing (hygroscopicity)", "setting": "[2]; [4]", "result": "No decomposition or change in weight was observed"}]}
